Measured values from patent publication US10093630B2, “Pyrazole compounds and methods of making and using same” (ABIDE THERAPEUTICS, INC., priority 2014, dated 2018).

Tests used:
Assay in all cases: In vitro competitive activity-based protein profiling (gel-based, FP-Rh or HT-01 probe)
Format in all cases: biochemical
FAAH = target: T1, FAAH (Mus musculus, UniProt O08914); conditions: for inhibition at 1 µM: 1 μM inhibitor, read-out: % Inhibition at 1 μM, B = FAAH; for inhibition at 1 µM / inhibition at 10 µM: gel-based competitive ABPP; for inhibition at 10 µM: 10 μM inhibitor, read-out: % Inhibition at 10 μM, B = FAAH; for IC50: mouse brain membrane fraction or cell lysates, 30 min preincubation at 37° C., read-out: Mouse (IC50 value, nM) FAAH
T1 construct: Proteomes (mouse brain membrane fraction or cell lysates); from tissue; host or cells: mouse brain membrane fraction (or cell lysates, not specified)
T1 sequence (O08914 1-579): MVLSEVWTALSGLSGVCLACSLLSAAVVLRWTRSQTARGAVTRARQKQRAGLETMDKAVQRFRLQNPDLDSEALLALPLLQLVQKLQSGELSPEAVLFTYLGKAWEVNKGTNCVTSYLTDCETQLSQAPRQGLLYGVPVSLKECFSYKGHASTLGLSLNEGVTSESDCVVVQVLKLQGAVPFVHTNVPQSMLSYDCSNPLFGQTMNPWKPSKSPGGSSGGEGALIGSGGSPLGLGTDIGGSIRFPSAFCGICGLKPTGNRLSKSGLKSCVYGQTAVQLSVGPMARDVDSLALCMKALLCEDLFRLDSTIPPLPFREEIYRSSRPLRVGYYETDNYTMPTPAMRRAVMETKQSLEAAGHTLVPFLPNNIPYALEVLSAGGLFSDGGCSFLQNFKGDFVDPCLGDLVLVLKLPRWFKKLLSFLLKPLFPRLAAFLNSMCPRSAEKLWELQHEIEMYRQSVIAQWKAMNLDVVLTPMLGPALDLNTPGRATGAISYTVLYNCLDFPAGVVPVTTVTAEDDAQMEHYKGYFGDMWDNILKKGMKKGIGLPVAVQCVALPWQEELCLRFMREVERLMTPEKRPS
Outline: (§1)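 Read-out: fluorescent band intensity on SDS-PAGE gels, reporting remaining serine hydrolase activity. Before that, proteome (mouse brain membranes or cell lysates, 1.0 mg/mL) saw a range of inhibitor concentrations for 30 min at 37° C, followed by 30 min probe labelling (FP-Rh or HT-01).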

MAGL = target: T2, MAGL (Mus musculus, UniProt O35678); conditions: for inhibition at 1 µM: 1 μM inhibitor; for inhibition at 1 µM / inhibition at 10 µM: gel-based competitive ABPP; for inhibition at 10 µM: 10 μM inhibitor; for IC50: mouse brain membrane fraction or cell lysates, 30 min preincubation at 37° C., read-out: Mouse (IC50 value, nM) MAGL
T2 construct: Proteomes (mouse brain membrane fraction or cell lysates); from tissue; host or cells: mouse brain membrane fraction (or cell lysates, not specified)
T2 sequence (O35678 1-303): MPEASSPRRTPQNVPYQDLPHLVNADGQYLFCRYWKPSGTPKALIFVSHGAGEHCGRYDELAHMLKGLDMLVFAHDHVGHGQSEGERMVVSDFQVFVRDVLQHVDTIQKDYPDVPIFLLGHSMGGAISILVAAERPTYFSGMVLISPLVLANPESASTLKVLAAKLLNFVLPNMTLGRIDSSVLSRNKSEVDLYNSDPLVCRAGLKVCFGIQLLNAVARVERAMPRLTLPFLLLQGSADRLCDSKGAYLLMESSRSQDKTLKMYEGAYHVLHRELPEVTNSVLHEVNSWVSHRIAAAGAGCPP
Outline: as §1

ABHD6 = target: T3, ABHD6 (Mus musculus, UniProt Q8R2Y0); conditions: for inhibition at 1 µM: 1 μM inhibitor, read-out: % Inhibition at 1 μM, C = ABHD6; for inhibition at 1 µM / inhibition at 10 µM: gel-based competitive ABPP; for inhibition at 10 µM: 10 μM inhibitor, read-out: % Inhibition at 10 μM, C = ABHD6; for IC50: mouse brain membrane fraction or cell lysates, 30 min preincubation at 37° C., read-out: Mouse (IC50 value, nM) ABHD6
T3 construct: Proteomes (mouse brain membrane fraction or cell lysates); from tissue; host or cells: mouse brain membrane fraction (or cell lysates, not specified)
T3 sequence (Q8R2Y0 1-336): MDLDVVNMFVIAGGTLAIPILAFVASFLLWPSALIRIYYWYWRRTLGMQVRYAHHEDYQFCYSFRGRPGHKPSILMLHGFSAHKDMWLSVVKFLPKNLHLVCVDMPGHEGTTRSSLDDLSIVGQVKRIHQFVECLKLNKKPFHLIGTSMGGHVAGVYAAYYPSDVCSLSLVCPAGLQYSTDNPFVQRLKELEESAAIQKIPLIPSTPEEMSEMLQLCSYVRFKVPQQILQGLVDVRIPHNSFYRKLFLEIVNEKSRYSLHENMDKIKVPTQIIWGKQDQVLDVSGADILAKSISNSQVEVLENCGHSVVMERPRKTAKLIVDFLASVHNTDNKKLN
Outline: as §1

PLA2G7 = target: T4, PLA2G7 (Mus musculus, UniProt Q60963); conditions: for inhibition at 1 µM: 1 μM inhibitor, read-out: % Inhibition at 1 μM, D = PLA2G7; for inhibition at 1 µM / inhibition at 10 µM: gel-based competitive ABPP; for inhibition at 10 µM: 10 μM inhibitor, read-out: % Inhibition at 10 μM, D = PLA2G7; for IC50: mouse brain membrane fraction or cell lysates, 30 min preincubation at 37° C.
T4 construct: Proteomes (mouse brain membrane fraction or cell lysates); from tissue; host or cells: mouse brain membrane fraction (or cell lysates, not specified)
T4 sequence (Q60963 22-440): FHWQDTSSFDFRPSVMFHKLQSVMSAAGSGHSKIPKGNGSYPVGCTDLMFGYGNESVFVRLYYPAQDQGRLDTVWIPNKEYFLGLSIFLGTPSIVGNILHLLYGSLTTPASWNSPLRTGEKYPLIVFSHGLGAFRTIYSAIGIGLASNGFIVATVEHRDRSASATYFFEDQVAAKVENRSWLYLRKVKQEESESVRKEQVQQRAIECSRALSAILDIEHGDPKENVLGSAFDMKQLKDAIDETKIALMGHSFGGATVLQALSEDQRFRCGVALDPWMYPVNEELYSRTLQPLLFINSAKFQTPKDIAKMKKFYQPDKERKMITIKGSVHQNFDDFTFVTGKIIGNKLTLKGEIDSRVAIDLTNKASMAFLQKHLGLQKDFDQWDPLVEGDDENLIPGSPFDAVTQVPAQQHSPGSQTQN
Outline: as §1

| SMILES | inhibition at 1 µM (FAAH) [%] | inhibition at 10 µM (FAAH) [%] | inhibition at 1 µM (MAGL) [%] | inhibition at 10 µM (MAGL) [%] | inhibition at 1 µM (ABHD6) [%] | inhibition at 10 µM (ABHD6) [%] | inhibition at 1 µM (PLA2G7) [%] | inhibition at 10 µM (PLA2G7) [%] | IC50 (FAAH) [nM] | IC50 (MAGL) [nM] | IC50 (ABHD6) [nM] | IC50 (PLA2G7) [nM] |
| --- | --- | --- | --- | --- | --- | --- | --- | --- | --- | --- | --- | --- |
| N#Cc1cnn(C(=O)N2CCN(Cc3ccc(C(=O)N4CCCCC4)cc3F)CC2)c1 [Example 284, 1-(4-(2-Fluoro-4-(piperidine-1-carbonyl)benzyl)piperazine-1-carbonyl)-1H-pyrazole-4-carbonitrile] | > 75 | > 75 | > 75 | > 75 | > 75 | > 75 | > 75 | > 75 | – | – | – | – |
| N#Cc1cnn(C(=O)N2CCN(Cc3ccc(C(=O)N4CCC4)cc3F)CC2)c1 [Example 285, 1-(4-(4-(Azetidine-1-carbonyl)-2-fluorobenzyl)piperazine-1-carbonyl)-1H-pyrazole-4-carbonitrile] | > 75 | > 75 | > 75 | > 75 | > 75 | > 75 | > 75 | > 75 | – | – | – | – |
| NC(=O)c1cnn(C(=O)N2CCN(Cc3cccc(Oc4ccccc4)c3)CC2)c1 [Example 286, 1-(4-(3-phenoxybenzyl)piperazine-1-carbonyl)-1H-pyrazole-4-carboxamide] | > 75 | – | > 75 | – | > 75 | – | 25 to 75 | – | < 100 | < 100 | < 100 | 100 to 1000 |
| CNC(=O)c1cnn(C(=O)N2CCN(Cc3cccc(Oc4ccccc4)c3)CC2)c1 [Example 287, N-Methyl-1-(4-(3-phenoxybenzyl)piperazine-1-carbonyl)-1H-pyrazole-4-carboxamide] | > 75 | – | > 75 | – | > 75 | – | > 75 | – | < 100 | < 100 | < 100 | < 100 |
| O=C(O)c1cnn(C(=O)N2CCN(Cc3ccc(Cl)cc3)CC2)c1 [Example 288, 1-(4-(4-Chlorobenzyl)piperazine-1-carbonyl)-1H-pyrazole-4-carboxylic acid] | 25 to 75 | > 75 | < 25 | < 25 | < 25 | < 25 | < 25 | < 25 | – | – | – | – |
| O=C(c1cnn(C(=O)N2CCN(Cc3ccc(-c4ccccc4)cc3Cl)CC2)c1)N1CCCC1 [Example 289, (4-((3-Chlorobiphenyl-4-yl)methyl)piperazin-1-yl)(4-(pyrrolidine-1-carbonyl)-1H-pyrazol-1-yl)methanone] | > 75 | > 75 | > 75 | > 75 | > 75 | > 75 | > 75 | > 75 | – | – | – | – |
| COc1cc(-c2ccccc2)ccc1CN1CCN(C(=O)n2cc(C(=O)N3CCCC3)cn2)CC1 [Example 290, (4-((3-Methoxybiphenyl-4-yl)methyl)piperazin-1-yl)(4-(pyrrolidine-1-carbonyl)-1H-pyrazol-1-yl)methanone] | > 75 | > 75 | > 75 | > 75 | > 75 | > 75 | < 25 | > 75 | – | – | – | – |
| O=C(c1cnn(C(=O)N2CCN(Cc3ccc(-c4ccccc4)cc3OCc3ccccc3)CC2)c1)N1CCCC1 [Example 291, (4-((3-(Benzyloxy)biphenyl-4-yl)methyl)piperazin-1-yl)(4-(pyrrolidine-1-carbonyl)-1H-pyrazol-1-yl)methanone] | > 75 | > 75 | > 75 | > 75 | > 75 | > 75 | < 25 | 25 to 75 | – | – | – | – |
| N#Cc1cnn(C(=O)N2CCCCCC2)c1 [Example 292, 1-(Azepane-1-carbonyl)-1H-pyrazole-4-carbonitrile] | > 75 | > 75 | 25 to 75 | > 75 | 25 to 75 | > 75 | < 25 | > 75 | 100 to 1000 | > 1000 | > 1000 | > 1000 |
| Cc1cnn(C(=O)NCc2ccc(OCc3ccccc3)cc2)c1 [Example 293, N-(4-(Benzyloxy)benzyl)-4-methyl-1H-pyrazole-1-carboxamide] | < 25 | – | < 25 | – | < 25 | – | < 25 | – | – | – | – | – |
| Cc1cnn(C(=O)N2CCN(Cc3cccc(Oc4ccccc4)c3)CC2)c1 [Example 294, (4-Methyl-1H-pyrazol-1-yl)(4-(3-phenoxybenzyl)piperazin-1-yl)methanone] | > 75 | – | > 75 | – | > 75 | – | < 25 | – | – | – | – | – |
| N#Cc1cnn(C(=O)N2CCN(Cc3cccc(Oc4ccccc4)c3)CC2)c1 [Example 295, 1-(4-(3-Phenoxybenzyl)piperazine-1-carbonyl)-1H-pyrazole-4-carbonitrile] | > 75 | – | > 75 | – | > 75 | – | < 25 | – | – | – | – | – |
| O=C(N1CCN(Cc2cccc(OCc3ccccc3)c2)CC1)n1cccn1 [Example 296, (4-(3-(Benzyloxy)benzyl)piperazin-1-yl)(1H-pyrazol-1-yl)methanone] | > 75 | – | > 75 | – | > 75 | – | < 25 | – | – | – | – | – |
| Cc1cnn(C(=O)N2CCN(Cc3cccc(OCc4ccccc4)c3)CC2)c1 [Example 297, (4-(3-(Benzyloxy)benzyl)piperazin-1-yl)(4-methyl-1H-pyrazol-1-yl)methanone] | > 75 | – | > 75 | – | > 75 | – | < 25 | – | – | – | – | – |
| Cc1cnn(C(=O)N2CCCN(Cc3cccc(Oc4ccccc4)c3)CC2)c1 [Example 298, (4-Methyl-1H-pyrazol-1-yl)(4-(3-phenoxybenzyl)-1,4-diazepan-1-yl)methanone] | < 25 | – | > 75 | – | < 25 | – | < 25 | – | – | – | – | – |
